This assay deals with P. falciparum (NF54 or 3D7 strain). Nature of the assay: Assay for P. falciparum proliferation in infected human blood cells (SYBR Green). Format: cell-based, Plasmodium falciparum. As to conditions: Plasmodium falciparum, Erythrocyte, 72 h, NF54 or 3D7 infected human erythrocytes, 72 hours; read-out: EC50 (nM), inhibitory efficacy in delaying P. falciparum proliferation in infected human blood cells. An outline of the steps: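 Infected erythrocytes (NF54 or 3D7; final 2.5% hematocrit, 0.3% parasitemia) were incubated with compounds for 72 h at 37 °C in low oxygen (3% O2, 4% CO2, 93% N2).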

The structures appear in SMILES notation. A value given as a limit tells only on which side of the number the result lay.

As to `CN(C)c1ccc(-c2cnc3cnc(C(=O)N(C)c4ccc(F)c(F)c4)cn23)cc1` [Compound 159, N-(3,4-difluorophenyl)-3-[4-(dimethylamino)phenyl]-N-methylimidazo[1,2-a]pyrazine-6-carboxamide], the EC50 came to 368 nM.
To `Cc1cc(C)n(-c2ccc(-c3cnc4cnc(C(=O)N(C)c5ccc(C#N)cc5)cn34)cc2)n1` [Compound 160, N-(4-cyanophenyl)-3-[4-(3,5-dimethyl-1H-pyrazol-1-yl)phenyl]-N-methylimidazo[1,2-a]pyrazine-6-carboxamide] belongs 1750 nM; to `CN(C(=O)c1cn2c(-c3ccc(C(N)=O)cc3)cnc2cn1)c1ccc(Cl)nc1` [Compound 161, 3-(4-carbamoylphenyl)-N-(6-chloropyridin-3-yl)-N-methylimidazo[1,2-a]pyrazine-6-carboxamide], 1470 nM; to `CC(C)Oc1ccc(-c2cnc3cnc(C(=O)N(C)c4ccc(C#N)cc4)cn23)cc1` [Compound 162, N-(4-cyanophenyl)-N-methyl-3-[4-(propan-2-yloxy)phenyl]imidazo[1,2-a]pyrazine-6-carboxamide], 318 nM.
To `Cc1nnc(-c2ccc(-c3cnc4cnc(C(=O)N(C)c5ccc(C#N)cc5)cn34)cc2)o1` [Compound 163, N-(4-cyanophenyl)-N-methyl-3-[4-(5-methyl-1,3,4-oxadiazol-2-yl)phenyl]imidazo[1,2-a]pyrazine-6-carboxamide] belongs 2630 nM; to `CN(C)c1ccc(-c2cnc3cnc(C(=O)N(C)c4ccc(S(C)(=O)=O)cc4)cn23)cc1` [Compound 164, 3-[4-(dimethylamino)phenyl]-N-(4-methanesulfonylphenyl)-N-methylimidazo[1,2-a]pyrazine-6-carboxamide], 961 nM; to `CN(C(=O)c1cn2c(-c3ccc(C4NC(=O)NC4=O)cc3)cnc2cn1)c1ccc(C#N)cc1` (stereo not shown) [Compound 165, N-(4-cyanophenyl)-3-[4-(2,5-dioxoimidazolidin-4-yl)phenyl]-N-methylimidazo[1,2-a]pyrazine-6-carboxamide], 4610 nM.
To `COC(=O)c1ccc(-c2cnc3cnc(C(=O)N(C)c4ccc(C#N)cc4)cn23)cc1` [Compound 166, methyl 4-{6-[(4-cyanophenyl)(methyl)carbamoyl]imidazo[1,2-a]pyrazin-3-yl}benzoate] belongs 206 nM; to `CN(C(=O)c1cn2c(-c3ccc4cnccc4c3)cnc2cn1)c1ccc(C#N)cc1` [Compound 167, N-(4-cyanophenyl)-3-(isoquinolin-6-yl)-N-methylimidazo[1,2-a]pyrazine-6-carboxamide], 4870 nM; to `CN(C(=O)c1cn2c(-c3ccc4c(=O)[nH]ccc4c3)cnc2cn1)c1ccc(C#N)cc1` [Compound 168, N-(4-cyanophenyl)-N-methyl-3-(1-oxo-1,2-dihydroisoquinolin-6-yl)imidazo[1,2-a]pyrazine-6-carboxamide], 558 nM.
Regarding `CN(C(=O)c1cn2c(-c3ccc(C(F)(F)F)c(F)c3)cnc2cn1)c1ccc(C#N)cc1` [Compound 169, N-(4-cyanophenyl)-3-[3-fluoro-4-(trifluoromethyl)phenyl]-N-methylimidazo[1,2-a]pyrazine-6-carbox], the EC50 was 497 nM.
To `CCCOc1ccc(-c2cnc3cnc(C(=O)N(C)c4ccc(C#N)cc4)cn23)cn1` [Compound 170, N-(4-cyanophenyl)-N-methyl-3-(6-propoxypyridin-3-yl)imidazo[1,2-a]pyrazine-6-carboxamide] belongs 4070 nM.
To `CN(C(=O)c1cn2c(-c3ccc(C(F)(F)F)cc3)cnc2cn1)c1ccccc1C(F)(F)F` [Compound 171, N-methyl-N-[2-(trifluoromethyl)phenyl]-3-[4-(trifluoromethyl)phenyl]imidazo[1,2-a]pyrazine-6-carboxamide] belongs 4010 nM; to `CN(C(=O)c1cn2c(-c3ccc(C(N)=O)cc3)cnc2cn1)c1ccc(S(C)(=O)=O)cc1` [Compound 172, 3-(4-carbamoylphenyl)-N-(4-methanesulfonylphenyl)-N-methylimidazo[1,2-a]pyrazine-6-carboxamide], 1130 nM.
Under `CN(C(=O)c1cn2c(-c3ccc(C(F)(F)F)cc3)cnc2cn1)c1ccc(OC(F)(F)F)cc1` [Compound 173, N-methyl-N-[4-(trifluoromethoxy)phenyl]-3-[4-(trifluoromethyl)phenyl]imidazo[1,2-a]pyrazine-6-carboxamide] stands 4250 nM; under `CN(C(=O)c1cn2c(-c3ccc(C(F)(F)F)cc3)cnc2cn1)c1nccn1C` [Compound 174, N-methyl-N-(1-methyl-1H-imidazol-2-yl)-3-[4-(trifluoromethyl)phenyl]imidazo[1,2-a]pyrazine-6-carboxamide], 4750 nM.
For `CN(C(=O)c1cn2c(-c3cccc(C(F)(F)F)c3)cnc2cn1)c1ccc(C#N)cc1` [Compound 175, N-(4-cyanophenyl)-N-methyl-3-[3-(trifluoromethyl)phenyl]imidazo[1,2-a]pyrazine-6-carboxamide], the EC50 was found to be 3280 nM.
To `O=C(c1cn2c(-c3ccc(C(F)(F)F)cc3)cnc2cn1)N1CCc2cc(F)ccc21` [Compound 176, 5-fluoro-1-({3-[4-(trifluoromethyl)phenyl]imidazo[1,2-a]pyrazin-6-yl}carbonyl)-2,3-dihydro-1H-indole] belongs over 10000 nM; to `CN(C(=O)c1cn2c(-c3ccc(Oc4ccccc4)cc3)cnc2cn1)c1ccc(C#N)cc1` [Compound 177, N-(4-cyanophenyl)-N-methyl-3-(4-phenoxyphenyl)imidazo[1,2-a]pyrazine-6-carboxamide], 6750 nM.
To `CN(C(=O)c1cn2c(-c3cnn(Cc4ccccc4)c3)cnc2cn1)c1ccc(C#N)cc1` [Compound 178, 3-(1-benzyl-1H-pyrazol-4-yl)-N-(4-cyanophenyl)-N-methylimidazo[1,2-a]pyrazine-6-carboxamide] belongs 6510 nM; to `CN(C(=O)c1cn2c(-c3ccc(Cl)cc3C(F)(F)F)cnc2cn1)c1ccc(C#N)cc1` [Compound 179, 3-[4-chloro-2-(trifluoromethyl)phenyl]-N-(4-cyanophenyl)-N-methylimidazo[1,2-a]pyrazine-6-carboxamide], 4400 nM.
Take `CN(C(=O)c1cn2c(-c3ccc(-c4nnn[nH]4)cc3)cnc2cn1)c1ccc(C#N)cc1` [Compound 180, N-(4-cyanophenyl)-N-methyl-3-[4-(1H-1,2,3,4-tetrazol-5-yl)phenyl]imidazo[1,2-a]pyrazine-6-carboxamide]: the EC50 is 4340 nM.
Under `CN(C(=O)c1cn2c(-c3ccc(N4CCCC4)cc3)cnc2cn1)c1ccc(C#N)cc1` [Compound 181, N-(4-cyanophenyl)-N-methyl-3-[4-(pyrrolidin-1-yl)phenyl]imidazo[1,2-a]pyrazine-6-carboxamide] stands 723 nM; under `CN(C(=O)c1cn2c(-c3ccc(-c4ccn[nH]4)cc3)cnc2cn1)c1ccc(C#N)cn1` [Compound 182, N-(5-cyanopyridin-2-yl)-N-methyl-3-[4-(1H-pyrazol-5-yl)phenyl]imidazo[1,2-a]pyrazine-6-carboxamide], 2260 nM.
To `CN(C(=O)c1cn2c(-c3ccc(C(F)(F)F)cc3)cnc2cn1)c1cccc(Br)c1` [Compound 183, N-(3-bromophenyl)-N-methyl-3-[4-(trifluoromethyl)phenyl]imidazo[1,2-a]pyrazine-6-carboxamide] belongs 2400 nM; to `CN(C(=O)c1cn2c(-c3cncc(S(N)(=O)=O)c3)cnc2cn1)c1ccc(C#N)cc1` [Compound 184, N-(4-cyanophenyl)-N-methyl-3-(5-sulfamoylpyridin-3-yl)imidazo[1,2-a]pyrazine-6-carboxamide], over 10000 nM.
With `CON(C)C(=O)c1ccc(-c2cnc3cnc(C(=O)N(C)c4ccc(C#N)cc4)cn23)cc1` [Compound 185, N-(4-cyanophenyl)-3-{4-[methoxy(methyl)carbamoyl]phenyl}-N-methylimidazo[1,2-a]pyrazine-6-carboxamide], the EC50 came to 7170 nM.
On to `CN(C(=O)c1cn2c(-c3ccc(CN)cc3)cnc2cn1)c1ccc(C#N)cc1` [Compound 186, 3-[4-(aminomethyl)phenyl]-N-(4-cyanophenyl)-N-methylimidazo[1,2-a]pyrazine-6-carboxamide], for which the EC50 came out at 9170 nM.
To `CN(C(=O)c1cn2c(-c3ccc(C(F)(F)F)nc3)cnc2cn1)c1ccc(C#N)cc1` [Compound 187, N-(4-cyanophenyl)-N-methyl-3-[6-(trifluoromethyl)pyridin-3-yl]imidazo[1,2-a]pyrazine-6-carboxamide] belongs 1380 nM; to `CCN(CC)C(=O)c1ccc(-c2cnc3cnc(C(=O)N(C)c4ccc(C#N)cc4)cn23)cc1` [Compound 188, N-(4-cyanophenyl)-3-[4-(diethylcarbamoyl)phenyl]-N-methylimidazo[1,2-a]pyrazine-6-carboxamide], over 10000 nM.
To `CN(C(=O)c1cn2c(-c3cnn(C)c3)cnc2cn1)c1ccc(C#N)cc1` [Compound 189, N-(4-cyanophenyl)-N-methyl-3-(1-methyl-1H-pyrazol-4-yl)imidazo[1,2-a]pyrazine-6-carboxamide] belongs 7890 nM; to `Cc1cccc(CN(C)C(=O)c2cn3c(-c4ccc(C(F)(F)F)cc4)cnc3cn2)n1` [Compound 190, N-methyl-N-[(6-methylpyridin-2-yl)methyl]-3-[4-(trifluoromethyl)phenyl]imidazo[1,2-a]pyrazine-6-carboxamide], 6240 nM; to `CN(C(=O)c1cn2c(-c3cccc(C#N)c3)cnc2cn1)c1ccc(C#N)cc1` [Compound 191, 3-(3-cyanophenyl)-N-(4-cyanophenyl)-N-methylimidazo[1,2-a]pyrazine-6-carboxamide], 7730 nM.
Under `CN(Cc1ccc(F)cc1)C(=O)c1cn2c(-c3ccc(C(F)(F)F)cc3)cnc2cn1` [Compound 192, N-[(4-fluorophenyl)methyl]-N-methyl-3-[4-(trifluoromethyl)phenyl]imidazo[1,2-a]pyrazine-6-carboxamide] stands 7390 nM.

For the origin of these results see patent US20150291598A1 (NOVARTIS AG, priority 2012, published 2015).
